Patent publication US12091426B2, “Bifunctional degraders of hematopoietic progenitor kinase and therapeutic uses thereof” (Nurix Therapeutics, Inc., priority 2021, dated 2024)

Target: T1, HPK1 (Homo sapiens, UniProt Q92918)
T1 construct: A HiBiT tag was introduced by CRISPR on the N terminus of HPK1 in Jurkat cells; host or cells: Jurkat cells (ATCC TIB-152), monoclonal line with CRISPR knock-in of HiBiT at the endogenous HPK1 locus
Test: HPK1 Cellular HiBit Degradation Assay
Format: cell-based
Conditions: HiBiT HPK1 Jurkat cells, 24 hrs; for DC50: concentration at which 50% of HPK1 was remaining, read-out: DC50 Category; for Dmax: Jurkat, maximum degradation vs DMSO vehicle control, read-out: Dmax Category
In short: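 Degraders are dosed in an 11-point series (10 uM to 0.1 nM final) onto Jurkat cells carrying an N-terminal HiBiT tag on endogenous HPK1. After 24 hrs at 37° C, lysis-based HiBiT luminescence quantifies remaining HPK1 relative to vehicle, and curve fitting gives DC50 and Dmax.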

T1 sequence (Q92918 whole entry): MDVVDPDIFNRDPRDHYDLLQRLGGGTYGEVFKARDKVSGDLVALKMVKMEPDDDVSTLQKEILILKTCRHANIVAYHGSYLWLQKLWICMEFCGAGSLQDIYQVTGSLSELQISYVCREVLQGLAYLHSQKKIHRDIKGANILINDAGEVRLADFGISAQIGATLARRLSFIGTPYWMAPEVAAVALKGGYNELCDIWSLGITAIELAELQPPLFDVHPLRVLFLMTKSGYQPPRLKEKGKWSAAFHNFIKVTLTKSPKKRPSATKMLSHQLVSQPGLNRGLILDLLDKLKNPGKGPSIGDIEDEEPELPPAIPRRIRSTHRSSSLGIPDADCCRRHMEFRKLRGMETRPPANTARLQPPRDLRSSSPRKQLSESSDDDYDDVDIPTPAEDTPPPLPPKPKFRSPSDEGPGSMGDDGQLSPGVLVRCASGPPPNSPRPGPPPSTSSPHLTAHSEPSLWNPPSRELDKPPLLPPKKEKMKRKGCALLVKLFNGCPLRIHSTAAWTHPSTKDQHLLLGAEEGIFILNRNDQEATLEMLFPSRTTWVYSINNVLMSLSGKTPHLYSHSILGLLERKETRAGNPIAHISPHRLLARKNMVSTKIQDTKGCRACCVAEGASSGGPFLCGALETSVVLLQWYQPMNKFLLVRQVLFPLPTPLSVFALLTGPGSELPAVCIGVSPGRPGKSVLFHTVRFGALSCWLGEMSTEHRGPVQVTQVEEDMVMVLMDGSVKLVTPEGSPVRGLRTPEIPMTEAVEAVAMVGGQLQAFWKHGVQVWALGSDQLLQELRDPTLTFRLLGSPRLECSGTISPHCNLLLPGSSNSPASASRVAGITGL

SMILES: CC(C)n1cnc2cc(-c3ccc4c(c3)N([C@H]3C[C@@H](N5CCCCC5)C3)C(=O)C43CCN(C(=O)C4(C)CCN(C(=O)CN5CCC(c6ccc(C7CCC(=O)NC7=O)cn6)CC5)CC4)CC3)nc(NC3CC3)c21 (mixture of isomers) [Example 224, (3RS)-3-[6-(1-{2-[4-({6-[4-(cyclopropylamino)-3-(propan-2-yl)-3H-imidazo[4,5-c]pyridin-6-yl]-2-oxo-1-[(1S,3S)-3-(piperidin-1-yl)cyclobutyl]-1,2-dihydrospiro[indole-3,4′-piperidin]-1′-yl}carbonyl)-4-methylpiperidin-1-yl]-2-oxoethyl}piperidin-4-yl)pyridin-3-yl]piperidine-2,6-dione]
- DC50: 100 to 500 nM
- Dmax: 70 to 85%

SMILES: CC(C)n1cnc2cc(-c3ccc4c(c3)N([C@H]3C[C@@H](N5CCCCC5)C3)C(=O)C43CCN(C(=O)[C@@H]4CCN(C(=O)[C@H]5CC[C@H](Oc6ccc(C7CCC(=O)NC7=O)cn6)CC5)C4)CC3)nc(Nc3ccncc3F)c21 (mixture of isomers) [Example 18, (3RS)-3-(6-{[(1R,4R)-4-[(3R)-3-[(6-{4-[(3-fluoropyridin-4-yl)amino]-3-(propan-2-yl)-3H-imidazo[4,5-c]pyridin-6-yl}-2-oxo-1-[(1S,3S)-3-(piperidin-1-yl)cyclobutyl]-1,2-dihydrospiro[indole-3,4′-piperidin]-1′-yl)carbonyl]pyrrolidine-1-carbonyl]cyclohexyl]oxy}pyridin-3-yl)piperidine-2,6-dione]
- DC50: 100 to 500 nM
- Dmax: 70 to 85%

SMILES: CC(C)n1cnc2cc(-c3ccc4c(c3)N([C@H]3C[C@@H](N5CCCCC5)C3)C(=O)C43CCN(C(=O)C4CCN(C(=O)C5CCN(c6ccc(C7CCC(=O)NC7=O)cn6)CC5)CC4)CC3)nc(Nc3ccccc3F)c21 (mixture of isomers) [Example 74, (3RS)-3-[6-(4-{4-[(6-{4-[(2-fluorophenyl)amino]-3-(propan-2-yl)-3H-imidazo[4,5-c]pyridin-6-yl}-2-oxo-1-[(1S,3S)-3-(piperidin-1-yl)cyclobutyl]-1,2-dihydrospiro[indole-3,4′-piperidin]-1′-yl)carbonyl]piperidine-1-carbonyl}piperidin-1-yl)pyridin-3-yl]piperidine-2,6-dione]
- DC50: < 100 nM
- Dmax: > 85%

SMILES: CC(C)n1cnc2cc(-c3ccc4c(c3)N([C@H]3C[C@@H](N5CCCCC5)C3)C(=O)C43CCN(CC(=O)N(C)C4CCN(C(=O)C5CCN(c6ccc(C7CCC(=O)NC7=O)cn6)CC5)CC4)CC3)nc(NC3CC3)c21 (stereo partly drawn) [Example 200, 2-{6-[4-(cyclopropylamino)-3-(propan-2-yl)-3H-imidazo[4,5-c]pyridin-6-yl]-2-oxo-1-[(1S,3S)-3-(piperidin-1-yl)cyclobutyl]-1,2-dihydrospiro[indole-3,4′-piperidin]-1′-yl}-N-(1-{1-[5-(2,6-dioxopiperidin-3-yl)pyridin-2-yl]piperidine-4-carbonyl}piperidin-4-yl)-N-methylacetamide]
- DC50: 100 to 500 nM
- Dmax: > 85%

SMILES: COC1CN(C(=O)C2CCN(c3ccc(C4CCC(=O)NC4=O)cc3)CC2)CCC1C(=O)N1CCC2(CC1)C(=O)N([C@H]1C[C@@H](N3CCCCC3)C1)c1cc(-c3cc4ncn(C(C)C)c4c(NC4CC4)n3)ccc12 (mixture of isomers) [Example 257, (3RS)-3-(4-{4-[4-({6-[4-(cyclopropylamino)-3-(propan-2-yl)-3H-imidazo[4,5-c]pyridin-6-yl]-2-oxo-1-[(1S,3S)-3-(piperidin-1-yl)cyclobutyl]-1,2-dihydrospiro[indole-3,4′-piperidin]-1′-yl}carbonyl)-3-methoxypiperidine-1-carbonyl]piperidin-1-yl}phenyl)piperidine-2,6-dione]
- DC50: < 100 nM
- Dmax: 50 to 70%
